# Legend:
# [1] = molecular target: Human recombinant Acetyl-CoA Carboxylase 2 (ACC2) (Homo sapiens, UniProt O00763); experiment: Assay X: ACC2 inhibition, inorganic phosphate (malachite green); type: biochemical; details: Assay X: 37° C., 1.5 h, 5 min pre-incubation
# Procedure: (§1) Human recombinant Acetyl-CoA Carboxylase 1 and Acetyl-CoA Carboxylase 2 (ACC1 and ACC2) were assayed by determining the amount of inorganic phosphate (Pi) generated. Pre-incubation of 15 μL enzyme together with 0.75 μL DMSO+/−compound for 5 min was done before the reaction was initiated by the addition of 10 μL substrate. […] After 1.5 h the reaction was stopped by addition of 74 μL of water followed by extensive mixing, split and transfer of 2×40 μL to a read-plate encompassing 30 μL distilled H2O per well (n=2→n=4). Colour reaction was initiated by addition of 30 μL malachite green reagent per well and allowed 15 min before absorbance reading of the plates at 660 nm. The malachite green reagent was prepared by mixing 16.4 mL ammonium molybdate solution (7.5%), 1.64 mL Tween (11%) with 82 mL Malachite Green/H2SO4-solution (0.7 g Malachite Green to 1000 mL of 10% (v/v) H2SO4).
# (§2) All compounds were tested in triplicate at 10 different concentrations. Control compound (0, 50 and 100% effect) was included on each plate. […] Curve fitting was done using the following equation: y=(A+((B−A)/(1+((x/C)̂D)))) where A and B represents the curve bottom (% inhibition) and the total amplitude (% inhibition), respectively, whereas C and D are the apparent IC50 and curve slope, respectively.
# [2] = molecular target: Human recombinant Acetyl-CoA Carboxylase 1 (ACC1) (Homo sapiens, UniProt Q13085); experiment: Assay X: ACC1 inhibition, inorganic phosphate (malachite green); type: biochemical; details: Assay X: 37° C., 1.5 h, 5 min pre-incubation
# Procedure: as §1, §2
# Human recombinant Acetyl-CoA Carboxylase 2 (ACC2), sequence (O00763 whole entry): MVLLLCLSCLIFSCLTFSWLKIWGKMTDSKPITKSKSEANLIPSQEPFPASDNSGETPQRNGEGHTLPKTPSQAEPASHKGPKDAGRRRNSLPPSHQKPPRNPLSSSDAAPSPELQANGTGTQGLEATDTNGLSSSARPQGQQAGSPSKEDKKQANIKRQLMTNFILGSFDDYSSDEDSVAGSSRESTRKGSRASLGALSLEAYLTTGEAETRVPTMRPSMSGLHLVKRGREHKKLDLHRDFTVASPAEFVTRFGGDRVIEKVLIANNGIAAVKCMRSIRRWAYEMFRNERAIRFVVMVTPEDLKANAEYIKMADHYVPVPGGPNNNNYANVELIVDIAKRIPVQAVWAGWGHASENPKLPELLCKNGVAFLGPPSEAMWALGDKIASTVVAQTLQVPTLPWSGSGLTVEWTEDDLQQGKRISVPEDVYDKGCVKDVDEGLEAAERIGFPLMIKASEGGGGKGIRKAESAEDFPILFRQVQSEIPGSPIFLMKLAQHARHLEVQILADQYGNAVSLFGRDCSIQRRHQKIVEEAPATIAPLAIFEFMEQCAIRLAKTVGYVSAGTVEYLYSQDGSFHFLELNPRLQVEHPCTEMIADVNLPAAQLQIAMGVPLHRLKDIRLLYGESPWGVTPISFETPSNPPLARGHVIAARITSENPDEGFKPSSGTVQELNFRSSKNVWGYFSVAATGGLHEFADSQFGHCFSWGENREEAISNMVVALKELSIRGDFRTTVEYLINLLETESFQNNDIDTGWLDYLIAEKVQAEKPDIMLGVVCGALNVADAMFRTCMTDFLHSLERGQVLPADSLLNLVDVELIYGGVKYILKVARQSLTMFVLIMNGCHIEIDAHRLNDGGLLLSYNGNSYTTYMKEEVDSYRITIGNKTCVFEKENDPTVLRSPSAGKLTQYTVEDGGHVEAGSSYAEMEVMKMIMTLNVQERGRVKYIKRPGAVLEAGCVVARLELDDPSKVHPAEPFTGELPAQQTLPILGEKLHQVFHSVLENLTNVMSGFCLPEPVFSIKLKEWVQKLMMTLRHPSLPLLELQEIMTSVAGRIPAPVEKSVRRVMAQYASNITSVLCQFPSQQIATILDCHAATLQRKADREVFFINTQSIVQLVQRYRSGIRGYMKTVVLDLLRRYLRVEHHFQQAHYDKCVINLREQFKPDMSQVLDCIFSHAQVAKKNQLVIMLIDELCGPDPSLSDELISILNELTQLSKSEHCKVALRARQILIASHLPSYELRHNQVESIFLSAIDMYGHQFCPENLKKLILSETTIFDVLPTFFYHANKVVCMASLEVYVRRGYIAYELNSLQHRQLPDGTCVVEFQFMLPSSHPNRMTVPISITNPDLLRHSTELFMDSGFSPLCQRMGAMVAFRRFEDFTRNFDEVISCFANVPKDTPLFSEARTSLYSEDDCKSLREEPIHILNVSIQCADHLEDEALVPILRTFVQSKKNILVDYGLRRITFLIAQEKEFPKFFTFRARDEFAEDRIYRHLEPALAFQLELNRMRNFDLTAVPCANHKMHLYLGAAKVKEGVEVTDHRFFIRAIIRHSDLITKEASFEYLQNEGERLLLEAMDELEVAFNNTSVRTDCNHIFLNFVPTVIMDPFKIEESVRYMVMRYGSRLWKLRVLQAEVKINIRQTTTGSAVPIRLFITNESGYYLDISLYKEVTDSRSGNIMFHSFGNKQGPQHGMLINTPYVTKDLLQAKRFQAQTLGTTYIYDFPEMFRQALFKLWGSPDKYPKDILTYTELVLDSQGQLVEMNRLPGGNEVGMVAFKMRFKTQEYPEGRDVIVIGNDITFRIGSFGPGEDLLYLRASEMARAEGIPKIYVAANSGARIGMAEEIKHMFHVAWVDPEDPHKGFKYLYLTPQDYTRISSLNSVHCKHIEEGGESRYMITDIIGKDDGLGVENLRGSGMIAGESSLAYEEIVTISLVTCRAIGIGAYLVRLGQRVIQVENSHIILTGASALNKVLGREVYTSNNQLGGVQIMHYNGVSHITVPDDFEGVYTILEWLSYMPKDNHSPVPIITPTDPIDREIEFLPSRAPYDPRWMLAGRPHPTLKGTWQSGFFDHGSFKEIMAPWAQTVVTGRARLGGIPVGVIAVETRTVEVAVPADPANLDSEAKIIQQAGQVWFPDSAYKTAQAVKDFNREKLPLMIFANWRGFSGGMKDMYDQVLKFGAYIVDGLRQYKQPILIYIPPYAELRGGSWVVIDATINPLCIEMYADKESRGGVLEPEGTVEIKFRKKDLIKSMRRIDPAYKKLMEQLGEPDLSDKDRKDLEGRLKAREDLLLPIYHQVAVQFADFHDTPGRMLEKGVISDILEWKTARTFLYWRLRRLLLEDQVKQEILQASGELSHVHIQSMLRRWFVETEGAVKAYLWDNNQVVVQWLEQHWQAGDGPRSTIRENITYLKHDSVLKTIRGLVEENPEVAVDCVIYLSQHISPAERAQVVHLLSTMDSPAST
SMILES,IC50 [1] [µM],IC50 [2] [µM]
"CC(C)(C)OC(=O)NC[C@H]1CC[C@H](CNC(=O)c2cc(-c3ccc(N4CCC[C@H]4C(N)=O)nc3)nc3ccccc23)CC1 [Example 163, tert-Butyl{[trans-4-({[(2-{6-[(2S)-2-carbamoylpyrrolidin-1-yl]pyridin-3-yl}-quinolin-4-yl)-carbonyl]amino}methyl)cyclohexyl]methyl}-carbamate]",0.37,1.1
"CC(C)(C)OC(=O)NC[C@H]1CC[C@H](CNC(=O)c2cc(-c3ccc(N4CC(O)C4)nc3)nc3ccccc23)CC1 [Example 168, tert-Butyl[(trans-4-{[({2-[6-(3-hydroxyazetidin-1-yl)-pyridin-3-yl]quinolin-4-yl}carbonyl)amino]-methyl}cyclohexyl)methyl]carbamate]",0.23,0.68
"CN(C)CCNC(=O)C1CN(c2cc(C(=O)NC[C@H]3CC[C@H](CNC(=O)OC(C)(C)C)CC3)c3ccccc3n2)C1 [Example 217, tert-Butyl ({trans-4-[({[2-(3-{[2-(dimethylamino)ethyl]carbamoyl}azetidin-1-yl)quinolin-4-yl]carbonyl}amino)methyl]cyclohexyl}methyl)carbamate]",0.73,4.7
"CC(C)(C)OC(=O)NC[C@H]1CC[C@H](CNC(=O)c2cc(N3CCC(CN4CCOCC4)CC3)nc3ccccc23)CC1 [Example 213, tert-Butyl[(trans-4-{[({2-[4-(morpholin-4-ylmethyl)piperidin-1-yl]quinolin-4-yl}carbonyl)amino]methyl}cyclohexyl)methyl]-carbamate]",0.62,3.28
"CC(C)(C)OC(=O)NC[C@H]1CC[C@H](CNC(=O)c2cc(-c3ccc(NC(CO)CO)nc3)nc3ccccc23)CC1 [Example 164, tert-Butyl({trans-4-[({[2-(6-{[2-hydroxy-1-(hydroxymethyl)-ethyl]amino}pyridin-3-yl)quinolin-4-yl]-carbonyl}amino)methyl]cyclohexyl}methyl)-carbamate]",0.33,1.26
"CN1CCN(C2CCN(c3cc(C(=O)NC[C@H]4CC[C@H](CNC(=O)OC(C)(C)C)CC4)c4ccccc4n3)CC2)CC1 [Example 214, tert-Butyl[(trans-4-{[({2-[4-(4-methylpiperazin-1-yl)piperidin-1-yl]-quinolin-4-yl}carbonyl)amino]methyl}cyclohexyl)methyl]-carbamate]",2.24,3.31
"CC(C)(C)OC(=O)NC[C@H]1CC[C@H](CNC(=O)c2cc(-c3ccc(N4CCC(CO)CC4)nc3)nc3ccccc23)CC1 [Example 161, tert-Butyl{[trans-4-({[(2-{6-[4-(hydroxymethyl)piperidin-1-yl]pyridin-3-yl}-quinolin-4-yl)-carbonyl]amino}methyl)cyclohexyl]methyl}carbamate]",0.16,0.3
"CC(C)(C)OC(=O)NC[C@H]1CC[C@H](CNC(=O)c2cc(-c3ccc(OCC(N)=O)nc3)nc3ccccc23)CC1 [Example 178, tert-Butyl[(trans-4-{[({2-[6-(2-amino-2-oxoethoxy)pyridin-3-yl]quinolin-4-yl}carbonyl)amino]-methyl}cyclohexyl)methyl]carbamate]",0.33,1.55
"CC(C)(C)OC(=O)NC[C@H]1CC[C@H](CNC(=O)c2cc(N3CCC(OCc4ccc(F)cc4)CC3)nc3ccccc23)CC1 [Example 221, tert-Butyl {[trans-4-({[(2-{4-[(4-fluorobenzyl)oxy]piperidin-1-yl}quinolin-4-yl)carbonyl]amino}methyl)cyclohexyl]methyl}carbamate]",1.61,> 20
"COC1CN(CCC2CCN(c3cc(C(=O)NC[C@H]4CC[C@H](CNC(=O)OC(C)(C)C)CC4)c4ccccc4n3)CC2)C1 [Example 229, tert-Butyl{[trans-4-({[(2-{4-[2-(3-methoxyazetidin-1-yl)ethyl]piperidin-1-yl}quinolin-4-yl)carbonyl]amino}-methyl)cyclohexyl]-methyl}carbamate]",0.11,0.92
"O=C(NC[C@H]1CC[C@H](CNC(=O)c2cc(-c3ccc(NCCO)nc3)nc3ccccc23)CC1)OC1CCOCC1 [Example 197, Tetrahydro-2H-pyran-4-yl {[trans-4-({[(2-{6-[(2-hydroxyethyl)amino]pyridin-3-yl}quinolin-4-yl)carbonyl]amino}methyl)cyclohexyl]methyl}carbamate]",1.98,9.64
"CC(C)(C)OC(=O)NC[C@H]1CC[C@H](CNC(=O)c2cc(-c3ccc(N4CNC(=O)C4)nc3)nc3ccccc23)CC1 [Example 172, tert-Butyl[(trans-4-{[({2-[6-(4-oxoimidazolidin-1-yl)-pyridin-3-yl]quinolin-4-yl}carbonyl)amino]-methyl}cyclohexyl)-methyl]carbamate]",0.16,3.5
"COCCNCCC1CCN(c2cc(C(=O)NC[C@H]3CC[C@H](CNC(=O)OC(C)(C)C)CC3)c3ccccc3n2)CC1 [Example 226, tert-Butyl ({trans-4-[({[2-(4-{2-[(2-methoxyethyl)amino]ethyl}piperidin-1-yl)quinolin-4-yl]carbonyl}amino)methyl]cyclohexyl}methyl)carbamate]",0.2,1.63
"CN(CCO)CCC1CCN(c2cc(C(=O)NC[C@H]3CC[C@H](CNC(=O)OC(C)(C)C)CC3)c3ccccc3n2)CC1 [Example 232, tert-Butyl({trans-4-[({[2-(4-{2-[(2-hydroxyethyl)(methyl)-amino]ethyl}piperidin-1-yl)quinolin-4-yl]carbonyl}amino)-methyl]cyclohexyl}-methyl)carbamate]",0.14,1.29
"CC(C)(C)OC(=O)NC[C@H]1CC[C@H](CNC(=O)c2cc(N3CCN(C(=O)CO)CC3)nc3ccccc23)CC1 [Example 220, tert-Butyl [(trans-4-{[({2-[4-(hydroxyacetyl)piperazin-1-yl]quinolin-4-yl}carbonyl)amino]methyl}cyclohexyl)methyl]carbamate]",1.18,9.63
"CC(=O)NCCOC(=O)NC[C@H]1CC[C@H](CNC(=O)c2cc(-c3ccc(N4CCN(C)CC4)nc3)nc3ccccc23)CC1 [Example 122, 2-Acetamidoethyl[(trans-4-{[({2-[6-(4-methylpiperazin-1-yl)pyridin-3-yl]quinolin-4-yl}carbonyl)amino]methyl}cyclohexyl)methyl]carbamate]",1.86,8.13
"CN(C)CCOC1CN(c2cc(C(=O)NC[C@H]3CC[C@H](CNC(=O)OC(C)(C)C)CC3)c3ccccc3n2)C1 [Example 238, tert-Butyl {[trans-4-({[(2-{3-[2-(dimethylamino)ethoxy]azetidin-1-yl}quinolin-4-yl)carbonyl]amino}methyl)cyclohexyl]methyl}carbamate]",0.63,4.45
"CC(C)(C)OC(=O)NC[C@H]1CC[C@H](CNC(=O)c2cc(-c3ccc(NCCCO)nc3)nc3ccccc23)CC1 [Example 150, tert-Butyl{[trans-4-({[(2-{6-[(3-hydroxypropyl)amino]pyridin-3-yl}quinolin-4-yl)carbonyl]amino}-methyl)cyclohexyl]methyl}carbamate]",0.13,0.35
"CC(C)(C)OC(=O)NC[C@H]1CC[C@H](CNC(=O)c2cc(N3CCC(CCNC4CCOCC4)CC3)nc3ccccc23)CC1 [Example 228, tert-Butyl{[trans-4-({[(2-{4-[2-(tetrahydro-2H-pyran-4-ylamino)ethyl]piperidin-1-yl}quinolin-4-yl)carbonyl]amino}-methyl)cyclohexyl]-methyl}carbamate]",0.21,1.52
"CN1CCN(c2ccc(-c3cc(C(=O)NC[C@H]4CC[C@H](CNC(=O)OCCC#N)CC4)c4ccccc4n3)cn2)CC1 [Example 132, 2-Cyanoethyl[(trans-4-{[({2-[6-(4-methylpiperazin-1-yl)pyridin-3-yl]quinolin-4-yl}carbonyl)amino]methyl}cyclohexyl)methyl]carbamate]",1.86,5.76
"CN(C)CCNc1ccc(-c2cc(C(=O)NC[C@H]3CC[C@H](CNC(=O)O[C@H]4CCOC4)CC3)c3ccccc3n2)cn1 [Example 199, (3S)-Tetrahydrofuran-3-yl({trans-4-[({[2-(6-{[2-(dimethylamino)ethyl]-amino}pyridin-3-yl)quinolin-4-yl]carbonyl}amino)-methyl]cyclohexyl}-methyl)carbamate]",0.37,1.6
"CC(C)(C)OC(=O)NC[C@H]1CC[C@H](CNC(=O)c2cc(-c3ccc(N(CCO)CCO)nc3)nc3ccccc23)CC1 [Example 152, tert-Butyl{[trans-4-({[(2-{6-[bis(2-hydroxyethyl)amino]pyridin-3-yl}quinolin-4-yl)carbonyl]amino}-methyl)cyclohexyl]methyl}carbamate]",0.17,0.48
CC(C)(C)OC(=O)NC[C@H]1CC[C@H](CNC(=O)c2cc(N3CCC(CCNCCF)CC3)nc3ccccc23)CC1 [Example 244],0.15,1.25
